Assay results reported in US7173004B2, “Macrocyclic isoquinoline peptide inhibitors of hepatitis C virus” (Bristol-Myers Squibb Company, priority 2003, dated 2007).
Entries after “also recorded” stand apart in the source; their conditions may differ.

Legend:
HCV replicon [1] = assay: Two-drug combination studies in HCV replicon system, combination index (Chou); assay type: cell-based; conditions: for EC50: monotherapy, NS3 protease inhibitor = compound 28, read-out: NS3 protease inhibitor EC50
Excerpt: Since clinical drug resistance often develops in viral infections following single-agent therapies, there is a need to assess the additive, antagonistic, or synergistic properties of combination therapies. We used the HCV replicon system, as described above, to assess the potential use of our NS3 protease macrocyclic inhibitor in combination therapies with Intron A and inhibitors targeting other HCV proteins. Three HCV antivirals, Intron A (recombinant Interferon alfa-2b) an HCV NS5A inhibitor having the following structure:
In addition, compound 28 was also tested in 3-drug combinations with the NS5A and NS5B inhibitors.
(§1) For the experiments shown in Tables 8 and 9, inhibitors were tested at eleven concentrations each. 200× stock solutions of each inhibitor concentration were prepared by 2- or 3-fold dilution in DMSO prior to addition to cells/media. The drugs were tested as monotherapies and in combination with the NS3 protease inhibitor at various concentration ratios. Cells were exposed to compounds for 4 days and the amount of HCV inhibition was then determined using the FRET assay. The potential cytotoxicities of these combined agents were also analyzed in parallel by Alamar Blue staining. […] The degree of antagonism, additivity, or synergy was determined over a range of drug concentrations, and combination response curves were fit to assess the antiviral effects of the drug treatment combinations. The concentration ratios were analyzed using the method of Chou (Chou, Ting-Chao, and Rideout (Editors), (1991) Synergism and Antagonism in Chemotherapy, P. 61–101, Academic Press, New York). Tables 8 and 9 report the estimated EC50 values for the compounds tested, as well as the combination indices (CI). All estimates were computed using SAS Proc NLIN, and a two-parameter logistic. All combination indices were tested for departure from additivity using isobologram methods. Asymptotic confidence intervals were also calculated for each of the combination indices. These intervals are used to test for departure from additivity by comparing the bounds to one—a lower bound of the interval greater than 1 indicates antagonism, an upper bound of less than 1 indicates synergism, and a value of 1 contained in the interval indicates additivity.

HCV replicon [2] = assay: Three-drug combination studies in HCV replicon system, combination index; assay type: cell-based
Method: […] an NS5B replicase inhibitor (compound 2006; WO 03/010141), were tested in 2-drug combinations with the macrocyclic HCV NS3 protease inhibitor compound 28. In addition, compound 28 was also tested in 3-drug combinations with the NS5A and NS5B inhibitors.
as §1
Compound 28 was also tested in 3-drug combination experiments with the NS5A inhibitor and the NS5B inhibitor (Table 12). The starting concentrations for the mono-therapies consisted of a 0.667 μM solution of the NS5A inhibitor, a 0.3 μM solution of compound 28, and a 2.5 μM solution of the NS5B inhibitor. The starting concentration for the triple combination contained a mixture of ⅓ of each of the above concentrations. Dose response curves for all three mono-therapies and the triple combination therapy were obtained using 3-fold dilutions, and data analysis was carried out as described above for combination index experiments.

human liver cathepsin B = target: T1, human liver cathepsin B (Homo sapiens, UniProt P07858); assay: Specificity assay, cathepsin B; assay type: biochemical; conditions: read-out: Cathepsin B activity in the specificity assays (IC50)
T1 construct: purchased Sigma; host or cells: human liver (by the enzyme's name)
Method: The specificities of compounds of the present invention were determined against a variety of serine proteases: human neutrophil elastase (HNE), porcine pancreatic elastase (PPE) and human pancreatic chymotrypsin and one cysteine protease: human liver cathepsin B. In all cases a 96-well plate format protocol using calorimetric p-nitroaniline (pNA) substrate specific for each enzyme was used as described previously (PCT Patent Application No. WO 00/09543) with some modifications to the serine protease assays. All enzymes were purchased from Sigma while the substrates were from Bachem.
Each assay included a 2 hr enzyme-inhibitor pre-incubation at room temperature followed by addition of substrate and hydrolysis to ˜30% conversion as measured on a Spectramax Pro microplate reader. Compound concentrations varied from 100 to 0.4 micromolar (“μM”) depending on their potency. […]
The percentage of inhibition was calculated using the formula: [1−((UVinh−UVblank)/(UVctl−UVblank))]×100 […]

[3] = 75, 90 and 95% effective doses, two experiments

| Structure (SMILES) | combination effect with Intron A (Interferon alfa-2b) (HCV replicon [1]; [3]) | combination effect with the HCV NS5A inhibitor (HCV replicon [1]; [3]) | EC50 (HCV replicon [1]; Hepatitis C virus, Table 9 (combinations with an NS5A inhibitor)) [µM] | EC50 (HCV replicon [1]; Table 9 (combinations with an NS5A inhibitor)) [µM] | EC50 (HCV replicon [1]; Table 8 (combinations with Interferon alfa-2b)) [µM] | combination effect, 3-drug combination with the NS5A inhibitor and the NS5B inhibitor (HCV replicon [2]; 75, 90 and 95% effective doses) | EC50 (HCV replicon [2]; Hepatitis C virus, mono-therapy in the three-drug combination experiment, HCV replicon, NS3 Pr inhibitor is compound 28, read-out: NS3 Pr inhibitor EC50) [µM] | IC50 (human liver cathepsin B) [µM] |
| --- | --- | --- | --- | --- | --- | --- | --- | --- |
| COc1ccc2c(OC3CC4C(=O)NC5(C(=O)NS(=O)(=O)C6CC6)CC5C=CCOCCCC(NC(=O)OC(C)(C)C)C(=O)N4C3)nccc2c1 (centres unmarked) [Compound 28, [4-Cyclopropanesulfonylaminocarbonyl-18-(6-methoxy-isoquinolin-1-yloxy)-2,15-dioxo-10-oxa-3,16-diaza-tricyclo[14.3.0.0^4,6]nonadec-7-en-14-yl]-carbamic acid tert-butyl ester] | either synergistic or additivity effects; also recorded: no drug antagonism | Synergy or additivity; also recorded: no drug antagonism | 0.009 | 0.011 | 0.01 | Synergistic effects; also recorded: No drug antagonism | 0.008 |  |
| CC(C)(C)OC(=O)N[C@H]1CCCCC/C=C\[C@@H]2C[C@@]2(C(=O)NS(C)(=O)=O)NC(=O)[C@@H]2C[C@@H](Oc3nccc4ccccc34)CN2C1=O [Compound 2, [18-(Isoquinolin-1-yloxy)-4-methanesulfonylaminocarbonyl-2,15-dioxo-3,16-diaza-tricyclo[14.3.0.0^4,6]nonadec-7-en-14-yl]-carbamic acid tert-butyl ester] |  |  |  |  |  |  |  | > 100 |
